Here are results for ten molecules from patent US11401278B2, “Macrocyclic indole derivatives” (The Broad Institute, Inc., priority 2017, dated 2022).

A word on the Kd: it is a measure of binding affinity in units of concentration. Lower therefore signals a tighter complex. As usually defined, the koff is a measure of how fast the partners let go of each other. A word on the kon: it is the second-order rate constant of association. The IC50 is the concentration that gives 50% inhibition. A lower IC50 goes with greater potency in that assay.

Structures can show the parent of a compound that is named as a salt.

Sequence of MCL-1 (Q07820 whole entry K194A/K197A/R201A, looked up): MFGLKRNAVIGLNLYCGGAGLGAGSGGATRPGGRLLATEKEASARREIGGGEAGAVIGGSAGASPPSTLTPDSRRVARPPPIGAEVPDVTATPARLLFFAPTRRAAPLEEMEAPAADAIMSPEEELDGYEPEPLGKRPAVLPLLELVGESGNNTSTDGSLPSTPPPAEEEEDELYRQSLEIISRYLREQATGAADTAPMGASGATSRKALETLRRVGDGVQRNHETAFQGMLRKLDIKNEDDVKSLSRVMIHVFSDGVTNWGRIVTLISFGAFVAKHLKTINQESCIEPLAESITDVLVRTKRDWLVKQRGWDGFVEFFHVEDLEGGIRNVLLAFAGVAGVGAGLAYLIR
Sequence of MCL1 protein (Q07820 whole entry): as the sequence (Q07820 whole entry K194A/K197A/R201A, looked up) above, with A194K, A197K, A201R counted along it

The first assay concerns the target MCL-1 (Homo sapiens (Human), UniProt Q07820, K194A/K197A/R201A). Description: Protein-compound interaction assay (SPR assay, Assay 8). Conditions: immobilized MBP-MCL-1, 25° C., geometric mean. Format: binding. An excerpt:
Assay 8 Protein-Compound Interaction Assay (SPR Assay)
The ability of the compounds described in this invention to bind to MCL-1 may be determined using surface plasmon resonance (SPR). This allows for the quantification of binding in terms of the equilibrium dissociation constant (KD [M]), as well as association and dissociation rate constants (kon [1/M 1/s] and koff [1/s], respectively). The measurements may be performed using Biacore® T200 or Biacore® S200 instruments (GE Healthcare).
For SPR measurements, recombinant MCL-1 (amino acids 173-321, N-terminal fused to Maltose Binding Protein (MBP) (SEQ ID 1) purchased from Beryllium (Bedford, Mass., USA)) was immobilized using standard amine coupling (Johnsson B et al, Anal Biochem. 1991 Nov. 1; 198(2):268-77). Briefly, carboxymethylated dextran biosensor chips (Series S Sensor Chip CMS, GE Healthcare) were activated with 1-ethyl-3-(3-dimethylaminopropyl)-carbodiimide hydrochloride (EDC) and N-hydroxysuccinimide (NHS) according to the supplier's instructions. MBP-MCL-1 was diluted in 1×PBS-P+ (GE Healthcare) and injected on the activated chip surface. Subsequently, a solution of 1 M ethanolamine-HCl (GE Healthcare) was injected to block unreacted groups, resulting in approximately 400-2500 response units (RU) of immobilized protein. A reference surface was generated by treatment with NHS-EDC and ethanolamine-HCl. Compounds were dissolved in 100% dimethylsulfoxide (DMSO) to a concentration of 10 mM and subsequently diluted in running buffer (1×PBS-P+ (GE Healthcare) [generated from PBS-P+ Buffer 10× (GE Healthcare): 0.2 M phosphate buffer with 27 mM KCl, 1.37 M NaCl and 0.5% Surfactant P20 (Tween 20).], 1% v/v DMSO). For SPR binding-measurements, serial dilutions of compound (eight dilution steps, typically ranging from 0.2 nM up to 1 μM) were injected over immobilized protein. […] Compounds were injected for 60 s followed by a dissociation time of up to 1000 s.
The double-referenced sensorgrams were fit to a simple reversible Langmuir 1:1 reaction mechanism as implemented in the Biacore® T200 and S200 evaluation software (T200 evaluation software version 2.0 and S200 evaluation software version 1.0, GE Healthcare).
A general note: SPR reads the build-up and loss of mass on a sensor chip optically.
For the molecule `CCNCC.CCc1c2c(nn1C)C(CCN1CCOCC1)N(C)S(=O)(=O)CCCn1c(C(=O)O)c(CCCOc3cccc4cc(F)ccc34)c3ccc(Cl)c-2c31` (single isomer, unassigned; enantiomer 2) [Example 76, 4-chloro-3-ethyl-7-{3-[(6-fluoronaphthalen-1-yl)oxy]propyl}-2,14-dimethyl-15-[2-(morpholin-4-yl)ethyl]-13,13-dioxo-10,11,12,13,14,15-hexahydro-2H-13lambda^6-pyrazolo[3′,4′:4,5][1,2,8]thiadiazacycloundecino[6,7,8-hi]indole-8-carboxylic acid-N-ethylethanamine Salt (Enantiomer 2)], the Kd is 0.34 nM, the off-rate constant (koff) came to 0.0025 s⁻¹ and the “kon” value stood at 7.3e+06 M⁻¹ s⁻¹.

Another assay has as its target MCL1 protein (Homo sapiens (Human), UniProt Q07820). Description: PIxEL: protein-protein interaction in permeabilized cells by ELISA (Assay 5). Format: cell-based. Conditions: permeabilized RKO cells, Biotin-BIM peptide 0.2 μM, serum free; median. The method, then:
PI×EL: Protein-Protein Interaction in Permeabilized Cells by ELISA
Most MCL1 protein molecules are localized at the mitochondria outer membrane and sequester pro-apoptotic proteins through binding of their BCL2 homology domain 3 (BH3 domain). MEB buffer (150 mM mannitol, 10 mM HEPES pH 7.5, 50 mM KCl, 20 μM EDTA, 20 μM EGTA, 5 mM potassium succinate, 0.1% protease-free BSA (SIGMA) with low dose digitonin (0.002%) permeabilizes plasma membrane while leaves live mitochondria, where MCL1 maintains its native localization and conformation. Unlike biophysical assays (e.g. TR-FRET) that use truncated recombinant MCL1 protein, this assay uses full length endogenous MCL1 protein at mitochondria outer membrane. It measures the interaction between MCL1 protein and biotinylated BIM BH3 peptide. Compounds can compete with BIM BH3 peptide to bind to MCL1 protein. This serum free assay measures the affinity between MCL1 protein and compound in permeabilized cells, therefore it is not affected by serum binding and cell permeability, and can measure the intrinsic compound affinity.
On day 1, RKO colon cancer cell line cells were plated at 0.8 million cells/ml, 100 μl/well in 96-well flat bottom TC plates (Corning). MCL1 antibody (Santa Cruz sc-12756) were diluted at 200 fold (final concentration 1 μg/ml) in carbonate buffer (Thermo Fisher Scientific, pH 9.6), and 50 μl of diluted antibody was added to each well of high bind ELISA plates (SARSTEDT). Each plate was tapped to make sure liquid covering entire bottom of wells and incubate at 37° C. overnight.
On the second day, MCL1 antibody was washed from ELISA plate. 250 μl Odyssey® Blocking Buffer (PBS) (Li-Cor) was added to each well, incubated at room temperature for at least 1 hour, then washed once with 250 μl 1×PBST. Plates with RKO cells were gently washed once with 100 μl/well PBS, once with 100 μl/well MEB buffer without digitonin, then 100 μl of MEB buffer with 0.002% digitonin was gently added to each well. Compounds were added with HP Tecan compound dispenser in 3-fold dilution series, highest dose 30 μM, 10-dose per compound in quadruplicates. Biotin-BIM peptide (synthesized by 21st Century) was added with HP Tecan compound dispenser at 0.2 μM immediately after the addition of compounds. Plates were rocked for 1 hour at room temperature. Then MEB buffer was aspirated and 50 μl of CHAPS buffer (50 mM Tris-Cl, pH 7.4, 150 mM NaCl, 1% CHAPS, 1 mM EDTA, 1 mM EGTA, cOmplete protease inhibitors (Roche), PhosSTOP (Roche)) was added to each well. Plates were rocked for 1 hour at 4° C., then 45 μl cell lysate from each well were transferred to ELISA plates coated with MCL1 antibody. Plates were incubated overnight in the cold room with rocking.
On the third day, ELISA plates were washed once with 250 μl 1×PBST. Streptavidin-poly-HRP (Thermo Fisher Scientific) was diluted to 20 ng/ml in Odyssey blocking buffer plus 0.05% Triton-100, and 100 μl was added to each well of the ELISA plate. Plates were incubated at room temperature for 1 hour with rocking, then washed with 100 μL 1×PBST for 3 times. Each SuperSignal ELISA Femto Maximum Sensitivity substrate was added to a 50-ml tube and mixed, then 100 μl of mixed substrate was added to each well. Plates were shaken for 1 minute then luminescence was measured by Envision plate reader […]. Signal of each well were normalized by no-compound control and no-cell control. IC50 was calculated using Graphic Pad PRISM software.
A general note: An ELISA detects its analyte on a solid surface through an enzyme-linked reagent.
Consider `Cc1c2c(nn1C)CN(C1CC1)S(=O)(=O)CCCn1c(C(=O)O)c(CCCOc3cccc4ccccc34)c3ccc(Cl)c-2c31` [Example 40, (rac)-4-chloro-14-cyclopropyl-2,3-dimethyl-7-[3-(1-naphthyloxy)propyl]-11,12,14,15-tetrahydro-2H,10H-pyrazolo[3′,4′:4,5][1,2,8]thiadiazacycloundecino[6,7,8-hi]indole-8-carboxylic acid 13,13-dioxide], for which the IC50 came out at 29400 nM. The same measure, in the same setting: as for `CCc1c2c(nn1C)C(CCN1CCOCC1)N(C)S(=O)(=O)CCCn1c(C(=O)O)c(CCCOc3cccc4cc(F)ccc34)c3ccc(Cl)c-2c31` (racemic) [Example 73, (rac)-(4-chloro-3-ethyl-7-{3-[(6-fluoronaphthalen-1-yl)oxy]propyl}-2,14-dimethyl-15-[2-(morpholin-4-yl)ethyl]-13,13-dioxo-10,11,12,13,14,15-hexahydro-2H-13lambda^6-pyrazolo[3′,4′:4,5][1,2,8]thiadiazacycloundecino[6,7,8-hi]indole-8-carboxylic acid (Racemate 1)], the figure is 33.1 nM; as for `CCc1c2c(nn1C)C(CCC1CCOCC1)N(C)S(=O)(=O)CCCn1c(C(=O)O)c(CCCOc3cccc4cc(F)ccc34)c3ccc(Cl)c-2c31` (single isomer, unassigned; enantiomer 3) [Example 63, (+)-4-chloro-3-ethyl-7-{3-[(6-fluoronaphthalen-1-yl)oxy]propyl}-2,14-dimethyl-15-[2-(oxan-4-yl)ethyl]-13,13-dioxo-10,11,12,13,14,15-hexahydro-2H-13lambda^6-pyrazolo[3′,4′:4,5][1,2,8]thiadiazacycloundecino[6,7,8-hi]indole-8-carboxylic acid (Enantiomer 3)], 22 nM; as for `CCc1c2c(nn1C)CN(CC)S(=O)(=O)CCCn1c(C(=O)O)c(CCCOc3cccc4cc(F)ccc34)c3ccc(Cl)c-2c31` (racemic) [Example 56, (rac)-4-chloro-3,14-diethyl-7-{3-[(6-fluoro-1-naphthyl)oxy]propyl}-2-methyl-11,12,14,15-tetrahydro-2H,10H-pyrazolo[3′,4′:4,5][1,2,8]thiadiazacycloundecino[6,7,8-hi]indole-8-carboxylic acid 13,13-dioxide], 145 nM. On the same count and under the same terms, with `CCc1c2c(nn1C)CN(C1CC1)S(=O)(=O)CCCn1c(C(=O)O)c(CCCOc3cccc4cc(F)ccc34)c3ccc(Cl)c-2c31` (single isomer, unassigned; enantiomer 1) [Example 54, (−)-4-chloro-14-cyclopropyl-3-ethyl-7-{3-[(6-fluoronaphthalen-1-yl)oxy]propyl}-2-methyl-13,13-dioxo-10,11,12,13,14,15-hexahydro-2H-13lambda^6-pyrazolo[3′,4′:4,5][1,2,8]thiadiazacycloundecino[6,7,8-hi]indole-8-carboxylic acid N-ethylethanamine Salt (Enantiomer 1)] the figure was 360 nM. Same read-out and setting: with `CCc1c2c(nn1C)CN(CC)S(=O)(=O)CCCn1c(C(=O)O)c(CCCOc3cccc4cc(F)ccc34)c3ccc(Cl)c-2c31` (single isomer, unassigned; enantiomer 1) [Example 57, (+)-4-chloro-3,14-diethyl-7-{3-[(6-fluoronaphthalen-1-yl)oxy]propyl}-2-methyl-13,13-dioxo-10,11,12,13,14,15-hexahydro-2H-13lambda^6-pyrazolo[3′,4′:4,5][1,2,8]thiadiazacycloundecino[6,7,8-hi]indole-8-carboxylic acid N-ethylethanamine Salt (Enantiomer 1)] the figure was 74.8 nM; with `Cc1c2c(nn1C)C(CCN1CCOCC1)N(C)S(=O)(=O)CCCn1c(C(=O)O)c(CCCOc3cccc4cc(F)ccc34)c3ccc(Cl)c-2c31` (racemic) [Example 48, (rac)-4-chloro-7-{3-[(6-fluoro-1-naphthyl)oxy]propyl}-2,3,14-trimethyl-15-(rac)-[2-(morpholin-4-yl)ethyl]-11,12,14,15-tetrahydro-2H,10H-pyrazolo[3′,4′:4,5][1,2,8]thiadiazacycloundecino[6,7,8-hi]indole-8-carboxylic acid 13,13-dioxide (Mixture of Stereoisomers)], 29.9 nM. `CCc1c2c(nn1C)CN(C1CC1)S(=O)(=O)CCCn1c(C(=O)O)c(CCCOc3cccc4cc(F)ccc34)c3ccc(Cl)c-2c31` (racemic) [Example 53, (rac)-4-chloro-14-cyclopropyl-3-ethyl-7-{3-[(6-fluoro-1-naphthyl)oxy]propyl}-2-methyl-11,12,14,15-tetrahydro-2H,10H-pyrazolo[3′,4′:4,5][1,2,8]thiadiazacycloundecino[6,7,8-hi]indole-8-carboxylic acid 13,13-dioxide] yielded a 50% inhibitory concentration (IC50) of 329 nM. For the molecule `Cc1c2c(nn1C)CNS(=O)(=O)CCCn1c(C(=O)O)c(CCCOc3cccc4cc(F)ccc34)c3ccc(Cl)c-2c31` (single isomer, unassigned; enantiomer 1) [Example 51, 4-chloro-7-{3-[(6-fluoronaphthalen-1-yl)oxy]propyl}-2,3-dimethyl-13,13-dioxo-10,11,12,13,14,15-hexahydro-2H-13lambda^6-pyrazolo[3′,4′:4,5][1,2,8]thiadiazacycloundecino[6,7,8-hi]indole-8-carboxylic acid (Enantiomer 1)], the half-inhibitory concentration (IC50) was found to be 458 nM.
